Measurements reported in PMC4125463 (Cancer prevention research (Philadelphia, Pa.), 2014).

Tests used:
Format in all cases: biochemical
p110α (PI3-K) = p110α (PI3-K) (Homo sapiens, UniProt P42336); test: […] lipid kinase assay with recombinant active p110α
ERK2 = ERK2 (Homo sapiens, UniProt P28482); test: […] kinase assay with recombinant active ERK2
p38α = p38α (Homo sapiens, UniProt Q16539); test: […] kinase assay with recombinant active p38α
p38α, sequence (Q16539 2-360): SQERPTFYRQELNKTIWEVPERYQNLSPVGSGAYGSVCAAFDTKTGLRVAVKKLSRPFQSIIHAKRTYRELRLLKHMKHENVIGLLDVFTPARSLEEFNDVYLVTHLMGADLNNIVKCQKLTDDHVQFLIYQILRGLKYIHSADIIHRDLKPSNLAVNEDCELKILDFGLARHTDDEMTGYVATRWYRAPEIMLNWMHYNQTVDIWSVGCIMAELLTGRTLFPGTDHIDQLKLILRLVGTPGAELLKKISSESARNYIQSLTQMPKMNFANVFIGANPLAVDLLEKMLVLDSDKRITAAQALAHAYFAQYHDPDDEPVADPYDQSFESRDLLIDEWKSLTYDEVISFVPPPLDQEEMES

p110α (PI3-K), sequence (P42336 whole entry): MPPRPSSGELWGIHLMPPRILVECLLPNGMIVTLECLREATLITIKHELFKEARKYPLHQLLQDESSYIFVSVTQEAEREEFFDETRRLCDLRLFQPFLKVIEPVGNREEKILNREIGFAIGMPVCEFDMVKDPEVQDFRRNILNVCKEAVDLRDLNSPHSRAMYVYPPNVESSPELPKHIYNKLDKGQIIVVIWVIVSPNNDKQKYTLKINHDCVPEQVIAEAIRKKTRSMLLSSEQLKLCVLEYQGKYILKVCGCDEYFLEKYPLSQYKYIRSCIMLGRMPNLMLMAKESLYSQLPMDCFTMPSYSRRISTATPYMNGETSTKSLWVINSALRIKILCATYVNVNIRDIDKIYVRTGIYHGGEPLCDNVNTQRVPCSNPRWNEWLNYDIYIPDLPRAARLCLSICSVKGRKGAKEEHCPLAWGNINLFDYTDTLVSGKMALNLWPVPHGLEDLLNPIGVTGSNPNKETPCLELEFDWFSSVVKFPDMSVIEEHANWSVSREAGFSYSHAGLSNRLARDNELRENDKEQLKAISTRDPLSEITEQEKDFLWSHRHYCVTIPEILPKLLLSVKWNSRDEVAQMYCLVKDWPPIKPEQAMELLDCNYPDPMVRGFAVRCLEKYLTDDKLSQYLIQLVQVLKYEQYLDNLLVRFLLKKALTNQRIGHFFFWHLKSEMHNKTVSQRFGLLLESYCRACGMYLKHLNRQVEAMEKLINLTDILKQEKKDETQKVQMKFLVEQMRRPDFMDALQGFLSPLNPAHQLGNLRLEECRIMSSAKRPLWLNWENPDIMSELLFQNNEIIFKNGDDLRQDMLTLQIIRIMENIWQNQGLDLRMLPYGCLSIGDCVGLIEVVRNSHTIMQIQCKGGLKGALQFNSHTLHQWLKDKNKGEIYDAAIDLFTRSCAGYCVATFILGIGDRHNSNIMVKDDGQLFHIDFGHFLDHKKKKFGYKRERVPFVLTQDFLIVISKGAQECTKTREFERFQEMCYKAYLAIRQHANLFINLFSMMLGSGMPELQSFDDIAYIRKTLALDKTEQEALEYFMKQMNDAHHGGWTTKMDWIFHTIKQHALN
ERK2, sequence (P28482 2-360): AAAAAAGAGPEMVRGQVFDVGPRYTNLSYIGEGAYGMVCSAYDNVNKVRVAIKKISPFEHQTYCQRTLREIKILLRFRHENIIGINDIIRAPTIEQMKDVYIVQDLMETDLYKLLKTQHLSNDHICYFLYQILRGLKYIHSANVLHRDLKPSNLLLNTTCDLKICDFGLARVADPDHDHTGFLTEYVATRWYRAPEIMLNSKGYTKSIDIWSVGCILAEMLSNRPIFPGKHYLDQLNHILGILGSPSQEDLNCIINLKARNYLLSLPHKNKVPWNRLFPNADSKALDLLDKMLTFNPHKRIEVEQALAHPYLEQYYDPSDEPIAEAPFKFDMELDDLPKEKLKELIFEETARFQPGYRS

IC50 (p110α (PI3-K)): 10.3 µM
IC50 (ERK2): 20.9 µM
IC50 (p38α): 12.9 µM
Compound: O=C1CCC(O)(CCOC(=O)/C=C/c2ccc(O)c(O)c2)CC1 [HOEC, (+)-2-(1-hydroxyl-4-oxocyclohexyl) ethyl caffeate]
